Several values for one entry are separate records, joined by “and”; a condition that tells them apart may be missing. Equal values may be shown once. Read-outs that look alike come from different tables or passages of the source.
Columns and labels:
[1] = Measurement 3: migration R of drug ion to liposome; type: physicochemical; conditions: 20 mM EPC liposome and 3.125 mM drug solution 1:1 by volume; 37° C., 18 hours; average of 3
Description: 20 mM of an EPC liposome (yolk phosphatidylcholine (lecithin)/particle diameter 290 to 490 nm) and 3.125 mM of a drug solution were mixed at a volume ratio of 1:1, and the mixture was incubated at 37° C. for 18 hours. After that, the resultant was centrifuged, and the amount of a drug ion in each of the supernatant and the precipitate was measured by HPLC, whereby the amount of the drug ion (unit: nmol/cm^3) that had migrated to the EPC liposome was measured.
The above measurement was performed 3 times for each sample, and the average value of the measurements was determined as the migration R.

[2] = Measurement 2: migration C of drug ion under skin-absent condition (through anion exchange membrane into physiological salt solution); type: physicochemical; conditions: for C (migration of drug ion under skin-absent condition): 6.25 mM drug solution, constant current 0.94 mA for 60 minutes, average of 3; for LogC: log of migration C, 6.25 mM, 0.94 mA, 60 minutes
From the text: (§1) In some embodiments, a working side assembly 10 of the device 1 may include a working side electrode (negative electrode) 11; an electrolyte solution holding portion 12 for holding a physiological salt solution; a cation exchange membrane 13 on the front surface side of the electrolyte solution holding portion; a drug solution holding portion 14 for holding a drug solution on the front surface side of the cation exchange membrane 13; and an anion exchange membrane 15 on the front surface side of the drug solution holding portion.
(§2) In some embodiments, a non-working side assembly 20 of the device 1 may include a non-working side electrode (positive electrode) 21; an electrolyte solution holding portion 22 for holding a physiological salt solution; an anion exchange membrane 23 on the front surface side of the electrolyte solution holding portion 22; an electrolyte solution holding portion 24 for holding a physiological salt solution on the front surface side of the anion exchange membrane 23; and a cation exchange membrane 25 on the front surface side of the electrolyte solution holding portion 24. It should be noted that an ion exchange membrane CLE 04-2 manufactured by Tokuyama Co., Ltd. was used as each of the ion exchange membrane 13 and the ion exchange membrane 25, and an ion exchange membrane ALE 04-2 manufactured by Tokuyama Co., Ltd. was used as each of the ion exchange membrane 15 and the ion exchange membrane 23.
The drug solution composition of the drug solution holding portion 14, energization conditions, and the like were identical to those of Measurement 1.
The above measurement was performed 3 times for each sample, and the average value of the measurements was determined as the migration C.

[3] = value from Scifinder database, cited from earlier work; for PSA: in Å2 (unit assumed)
[4] = Measurement 1: migration M of drug ion to skin with membrane type iontophoresis device; type: in vitro ADME, rat; conditions: for LogM: log of migration M, 6.25 mM, 0.94 mA, 60 minutes; for LogM / M (migration of drug ion to skin): rat back skin; for M (migration of drug ion to skin): 6.25 mM drug solution, constant current 0.94 mA for 60 minutes, average of 3
From the text: as §1, §2
Energization was performed in a state where a corium layer 32 was brought into contact with the physiological salt solution of the electrolyte solution holding portion 26. After energization, the skin 30 was frozen and processed.
The above measurement was performed 3 times for each sample, and the average value of the measurements was determined as the migration M.

[5] = Prediction of Log(M*/C) from measured C and R by Equation 2; design: species or system rat; conditions: M* determined as a function of measured C and R values (Eq. 2)

O=C(O)Cc1c[nH]c2ccccc12 [Indoleacetic acid, 3-Indoleacetic acid]
LogR (migration R of drug ion to liposome) [1]: −0.69
C (migration of drug ion under skin-absent condition) [2]: 7822 nmol/mL
LogC [2]: 3.89
LogD [3]: −1.37
LogP [3]: 1.43

O=C(O)CCCc1c[nH]c2ccccc12 [Indolebutylic acid, Indolebutyric acid]
LogR (migration R of drug ion to liposome) [1]: −0.26
Log(M/C) [4]: −0.74
Predicted Log(M*/C) [5]: −0.87
C (migration of drug ion under skin-absent condition) [2]: 3744 nmol/mL and 3774 nmol/mL
LogC [2]: 3.58
PSA [3]: 53 and 53.1

CCc1cccc2c3c([nH]c12)C(CC)(CC(=O)O)OCC3 (centres unmarked) [Etodolac]
Log(M/C) ([4]; from measured M and C): −0.93
LogM [4]: 2.48
Predicted Log(M*/C) [5]: −0.54
LogC [2]: 3.41

CC(C(=O)O)c1cccc(C(=O)c2ccccc2)c1 (centres unmarked) [Ketoprofen]
LogR (migration R of drug ion to liposome) [1]: −0.29
Predicted Log(M*/C) [5]: −0.89
C (migration of drug ion under skin-absent condition) [2]: 2432 nmol/mL
LogC [2]: 3.39
LogD [3]: 0.33
PSA [3]: 54

1-Naphtaleneacetic acid [Napthaleneacetic acid]
LogR (migration R of drug ion to liposome) [1]: −0.47
Log(M/C) [4]: −0.8
Predicted Log(M*/C) [5]: −1.03
C (migration of drug ion under skin-absent condition) [2]: 4806 nmol/mL
LogC [2]: 3.68
PSA [3]: 37 and 37.3

O=C(O)Cc1ccc(-c2ccccc2)cc1 [Felbinac]
LogR (migration R of drug ion to liposome) [1]: 0.27
C (migration of drug ion under skin-absent condition) [2]: 3409 nmol/mL
LogC [2]: 3.53
LogD [3]: 0.83
LogP [3]: 3.26

O=C(O)c1ccccc1O [Salicylic acid]
LogR (migration R of drug ion to liposome) [1]: −0.49
Log(M/C) ([4]; from measured M and C): −0.96
LogM [4]: 2.87
M (migration of drug ion to skin) [4]: 749 nmol/mL
Predicted Log(M*/C) [5]: −1.04
C (migration of drug ion under skin-absent condition) [2]: 6800 nmol/mL
LogC [2]: 3.83
LogD [3]: −1.08
LogP [3]: 2.06
PSA [3]: 58

COc1ccc2c(c1)c(CC(=O)O)c(C)n2C(=O)c1ccc(Cl)cc1 [Indomethacin]
LogR (migration R of drug ion to liposome) [1]: 0.23
Log(M/C) ([4]; from measured M and C): −0.87
LogM [4]: 2.47
M (migration of drug ion to skin) [4]: 296 nmol/mL
Predicted Log(M*/C) [5]: −0.49
C (migration of drug ion under skin-absent condition) [2]: 2189 nmol/mL
LogC [2]: 3.34
LogD [3]: −0.13
LogP [3]: 3.11
PSA [3]: 64

O=C(O)Cc1ccccc1Nc1c(Cl)cccc1Cl [Diclofenac]
Log(M/C) ([4]; from measured M and C): 0.3
LogM [4]: 3.16
Predicted Log(M*/C) [5]: 0.1
LogC [2]: 2.86
